# Measurements reported in patent US20240360082A1, “SUBSTITUTED PYRIDONE COMPOUNDS USEFUL TO TREAT ORTH[…]” (priority 2021, published 2024).
# Molecular target: influenza B virus minigenome (Hubei B) (UniProt P04665)
# Type: cell-based
# Conditions: read-out: RNP_Hubei B IC50
# Sequence of influenza B virus minigenome (Hubei B) (P04665 whole entry): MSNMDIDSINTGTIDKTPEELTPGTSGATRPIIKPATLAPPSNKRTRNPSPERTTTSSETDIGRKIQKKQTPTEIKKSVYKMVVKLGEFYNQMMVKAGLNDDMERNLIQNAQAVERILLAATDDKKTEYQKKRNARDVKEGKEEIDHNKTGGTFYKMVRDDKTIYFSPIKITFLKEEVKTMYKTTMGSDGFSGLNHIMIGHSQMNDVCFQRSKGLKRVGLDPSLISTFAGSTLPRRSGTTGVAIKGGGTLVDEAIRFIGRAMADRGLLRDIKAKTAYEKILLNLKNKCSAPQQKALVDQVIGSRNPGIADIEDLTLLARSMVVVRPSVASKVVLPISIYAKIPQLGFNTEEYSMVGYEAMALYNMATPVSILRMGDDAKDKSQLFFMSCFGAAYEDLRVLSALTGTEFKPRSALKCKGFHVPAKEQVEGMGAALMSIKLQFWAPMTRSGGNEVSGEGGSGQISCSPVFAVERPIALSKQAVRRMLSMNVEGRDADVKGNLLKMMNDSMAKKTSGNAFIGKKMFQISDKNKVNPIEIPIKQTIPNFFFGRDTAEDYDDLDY
row,Structure (SMILES),IC50 [µM]
1,"C[C@@]1(C2CC2)COC[C@@H](COc2ccc(-c3cc(C(N)=O)c(=O)[nH]c3C(F)(F)F)cc2)O1 [Example 437, 5-(4-(((2S,6R)-6-cyclopropyl-6-methyl-1,4-dioxan-2-yl)methoxy)phenyl)-2-oxo-6-(trifluoromethyl)-1,2-dihydropyridine-3-carboxamide]",5 to 10
2,"COC[C@]1(C2CC2)COC[C@@H](COc2ccc(-c3cc(C(N)=O)c(=O)[nH]c3C(F)(F)F)cc2)O1 [Example 438, 5-(4-(((2S,6R)-6-cyclopropyl-6-(methoxymethyl)-1,4-dioxan-2-yl)methoxy)phenyl)-2-oxo-6-(trifluoromethyl)-1,2-dihydropyridine-3-carboxamide]",5 to 10
3,"C[C@]1(COCCF)COC[C@@H](COc2ccc(-c3cc(C(N)=O)c(=O)[nH]c3C(F)(F)F)cc2)O1 [Example 436, 5-(4-(((2S,6R)-6-((2-fluoroethoxy)methyl)-6-methyl-1,4-dioxan-2-yl)methoxy)phenyl)-2-oxo-6-(trifluoromethyl)-1,2-dihydropyridine-3-carboxamide]",5 to 10
4,"COC[C@@]1(C2CC2)COC[C@@H](COc2ccc(-c3cc(C(N)=O)c(=O)[nH]c3C(F)(F)F)cc2)O1 [Example 439, 5-(4-(((2S,6S)-6-cyclopropyl-6-(methoxymethyl)-1,4-dioxan-2-yl)methoxy)phenyl)-2-oxo-6-(trifluoromethyl)-1,2-dihydropyridine-3-carboxamide]",5 to 10
5,"NC(=O)c1cc(-c2ccc(OC[C@@H]3COC[C@]4(CCOC4)O3)cc2)c(C(F)(F)F)[nH]c1=O [Example 440, 5-(4-(((5R,7S)-2,6,9-trioxaspiro[4.5]decan-7-yl)methoxy)phenyl)-2-oxo-6-(trifluoromethyl)-1,2-dihydropyridine-3-carboxamide]",5 to 10
